In the experiment the target is Sodium channel protein type 10 subunit alpha (Homo sapiens, UniProt Q9Y5Y9). As to the kind of experiment: Inhibition of human Nav1.8 expressed in HEK cells applied electrical stimulus 10 Hz for 10 seconds measuring relaxation to the resting state followed by post stimulation by E-VIPR Assay. It is filed as cell-based.

A word on the IC50: it is the concentration needed to halve the response being measured.

SMILES strings stand for the structures.

Sequence of Sodium channel protein type 10 subunit alpha (Q9Y5Y9 whole entry): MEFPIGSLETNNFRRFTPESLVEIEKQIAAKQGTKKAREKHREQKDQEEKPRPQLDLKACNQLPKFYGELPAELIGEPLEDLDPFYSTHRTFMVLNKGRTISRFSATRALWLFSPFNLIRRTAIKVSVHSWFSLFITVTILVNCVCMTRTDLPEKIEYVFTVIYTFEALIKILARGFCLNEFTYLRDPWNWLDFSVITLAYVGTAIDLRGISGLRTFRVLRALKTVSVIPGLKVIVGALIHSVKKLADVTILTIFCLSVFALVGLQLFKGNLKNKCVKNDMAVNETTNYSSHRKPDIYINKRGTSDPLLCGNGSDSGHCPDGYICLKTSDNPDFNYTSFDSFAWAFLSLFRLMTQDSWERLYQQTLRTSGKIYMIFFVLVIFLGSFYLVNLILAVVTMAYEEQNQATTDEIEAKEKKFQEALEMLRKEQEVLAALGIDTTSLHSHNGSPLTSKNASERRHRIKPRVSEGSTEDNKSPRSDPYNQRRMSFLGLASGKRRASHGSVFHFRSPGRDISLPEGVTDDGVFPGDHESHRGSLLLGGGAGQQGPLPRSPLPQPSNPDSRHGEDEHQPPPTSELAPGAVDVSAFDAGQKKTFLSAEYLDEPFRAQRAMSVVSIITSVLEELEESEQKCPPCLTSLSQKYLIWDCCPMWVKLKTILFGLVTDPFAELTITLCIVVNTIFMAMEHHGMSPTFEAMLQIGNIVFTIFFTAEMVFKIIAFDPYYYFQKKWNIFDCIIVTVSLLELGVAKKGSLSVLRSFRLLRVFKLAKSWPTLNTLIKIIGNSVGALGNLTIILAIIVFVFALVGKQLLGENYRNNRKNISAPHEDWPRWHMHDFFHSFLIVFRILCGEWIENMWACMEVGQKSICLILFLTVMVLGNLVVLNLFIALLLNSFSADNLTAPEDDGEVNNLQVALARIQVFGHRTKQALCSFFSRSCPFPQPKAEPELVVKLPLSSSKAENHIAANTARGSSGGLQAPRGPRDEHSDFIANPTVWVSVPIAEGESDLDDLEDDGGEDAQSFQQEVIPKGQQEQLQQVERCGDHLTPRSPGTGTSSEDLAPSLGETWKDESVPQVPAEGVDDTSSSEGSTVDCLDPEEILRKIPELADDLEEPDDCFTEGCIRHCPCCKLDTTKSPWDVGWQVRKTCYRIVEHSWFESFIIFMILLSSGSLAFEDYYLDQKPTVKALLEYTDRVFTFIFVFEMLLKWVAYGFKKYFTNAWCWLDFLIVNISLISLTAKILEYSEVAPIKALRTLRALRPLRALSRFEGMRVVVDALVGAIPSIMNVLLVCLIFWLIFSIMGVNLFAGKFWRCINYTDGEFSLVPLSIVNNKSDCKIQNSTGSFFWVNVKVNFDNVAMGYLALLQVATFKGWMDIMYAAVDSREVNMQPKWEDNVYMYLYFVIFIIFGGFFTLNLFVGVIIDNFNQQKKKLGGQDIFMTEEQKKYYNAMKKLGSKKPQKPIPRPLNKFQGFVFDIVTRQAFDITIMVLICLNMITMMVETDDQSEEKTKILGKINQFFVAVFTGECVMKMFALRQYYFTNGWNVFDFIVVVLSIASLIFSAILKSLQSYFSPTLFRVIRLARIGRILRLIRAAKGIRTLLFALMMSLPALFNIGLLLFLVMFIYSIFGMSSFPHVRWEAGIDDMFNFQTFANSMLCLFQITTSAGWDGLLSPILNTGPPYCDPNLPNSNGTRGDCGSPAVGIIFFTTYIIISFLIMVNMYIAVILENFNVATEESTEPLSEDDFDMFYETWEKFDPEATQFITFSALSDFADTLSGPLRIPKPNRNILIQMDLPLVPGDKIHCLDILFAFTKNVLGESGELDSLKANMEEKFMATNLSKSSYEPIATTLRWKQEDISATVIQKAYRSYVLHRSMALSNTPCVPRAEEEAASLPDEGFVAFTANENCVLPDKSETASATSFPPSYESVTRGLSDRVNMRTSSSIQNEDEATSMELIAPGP

As for `COc1cc(OC(F)(F)F)ccc1Oc1cc(OC)c(C(F)(F)F)c(F)c1C(=O)Nc1ccnc(C(N)=O)c1`, half-maximal inhibition (IC50) was put at 1.8 nM. Take `COc1cc(OC(F)(F)F)ccc1Oc1ccc(C(F)(F)F)c(C)c1C(=O)Nc1ccnc(C(N)=O)c1`: inhibition was half-maximal at 4 nM (IC50). Against the preceding molecule, the IC50 is about 2.2-fold higher. Turning to `COc1c(Oc2cc(C(F)(F)F)c(OC)c(F)c2C(=O)Nc2ccnc(C(N)=O)c2)ccc(OC(F)(F)F)c1F`, the midpoint of inhibition, the IC50, lay at 1.6 nM.

`COc1c(Oc2cc(Cl)c(C)c(F)c2C(=O)Nc2ccnc(C(N)=O)c2)ccc(OC(F)(F)F)c1F` returned an IC50 of 1.4 nM. `COc1c(Oc2cc(C(F)(F)F)c(C)c(F)c2C(=O)Nc2ccnc(C(N)=O)c2)ccc(OC(F)(F)F)c1F` came in with an IC50 of 0.8 nM. As for `COc1c(Cl)cc(Oc2ccc(OC(F)(F)F)c(F)c2OC)c(C(=O)Nc2ccnc(C(N)=O)c2)c1F`, the IC50 came out at 1.3 nM. With `COc1c(Oc2ccc(C(F)(F)F)c(C)c2C(=O)Nc2ccnc(C(N)=O)c2)ccc(OC(F)(F)F)c1F`, half-maximal inhibition (IC50) required 3 nM. In turn, `COc1cc(Oc2ccc(OC(F)(F)F)c(F)c2OC)c(C(=O)Nc2ccnc(C(N)=O)c2)c(F)c1C(F)(F)F` had an IC50 of 0.4 nM. As for `COc1cc(Oc2ccc(OC(F)(F)F)c(F)c2OC)c(C(=O)Nc2ccnc(C(N)=O)c2)c(F)c1Cl`, it took 1.7 nM to reach half-maximal inhibition (IC50). On to `COc1cc(OC(F)(F)F)ccc1Oc1ccc(C(F)(F)F)c(Cl)c1C(=O)Nc1ccnc(C(N)=O)c1`, for which the IC50 was determined as 2 nM. As for `COc1c(Oc2ccc(Cl)c(F)c2C(=O)Nc2ccnc(C(N)=O)c2)ccc(OC(F)(F)F)c1F`, half-maximal inhibition (IC50) was put at 2.3 nM. Take `COc1cc(OC(F)(F)F)ccc1Oc1ccc(C(F)(F)F)c(Br)c1C(=O)Nc1ccnc(C(N)=O)c1`: the IC50 turned out to be 2 nM.

The record behind these values is ChEMBL document CHEMBL4665909, “Carboxamides as Modulators of Sodium Channels” (ACS Med Chem Lett, 2020).
